Laboratory results from patent US20230355506A1, “ACTIVE INGREDIENT COMPLEX FOR COSMETIC PREPARATIONS” (LA PRAIRIE GROUP AG, priority 2022, published 2023).

These molecules were tested on collagen I A2 (assay: ELISA for collagen1A2 in ECM isolated from cultured hypodermis explants after 10 days of treatment). Details: additions (extract solvents/additives) alone.
Assay type: cell-based, human
Procedure: The hypodermis was prepared and weighed out into approximately 200 mg pieces. The tissue was cultured in a submersed state in defined and serum-free hypodermis tissue culture medium (CB-EM-HYP) in an actively humidified biomedical incubator (Memmert, Germany) at 37° C. and 5% CO2.
Overnight cultivation was followed by substitution with fresh tissue culture medium. Explants were cultivated either in the presence or absence of test samples.
Over a period of 10 days, the medium was replaced daily with freshly supplemented test samples or with normal media without test samples.
After 10 days of treatment, a portion of the tissue samples was processed for the extraction of ECM proteins.
Isolated ECM was subjected to a protein estimation in accordance with the BCA method (Bicinchoninic Acid) (Sigma Aldrich), and ELISAs (Biotechne) corresponding to the antigen collagen1A2 were performed according to the manufacturer's protocol using the same amounts of proteins as were estimated from the BCA assay. A sensitive filter-based microplate reader (Accuris, USA) was used to perform readout.
The following test samples were investigated: • A. Glycolic caviar extract containing approx. 6% fish egg material, 10% water and propylene glycol ad 100. […] Lipophilic caviar extract containing 40% fish egg material, 0.02% tocopherol, 1% by weight phenoxyethanol and triglycerides ad 100. This extract was obtained from an extraction with triglycerides and phenoxyethanol of a homogenizate from fish eggs of Acipenser baerii. […] The proportion of sodium mannose 6-phosphate is 2.5% by weight. The proportion of mannose is 2.5% by weight.

| Structure (SMILES) | Increase in the expression of collagen I by the additions alone |
| --- | --- |
| O=C(O)[C@@H](O)[C@H](O)[C@H](O)[C@@H](O)C(=O)O [galactaric acid] | do not show any increase |
| OCC(O)CO [glycerol] | do not show any increase |
| CC(O)CO (stereo not shown) [propylene glycol] | do not show any increase |
| O [water] | do not show any increase |
